Measured values taken from patent publication US20260042770A1, “NOVEL SULFONES AND THEIR USE AS NEUROPROTECTIVE AND/OR NEURORESTORATIVE AGENTS” (GENECODE, priority 2022, published 2026).

Each compound was assayed against T1, GFRα1-RET (Homo sapiens, UniProt P56159) (assay: Elk1 luciferase reporter-gene assay in cells expressing GFRα1-RET). Details: agonist/activator activity of Elk1 signaling; MG87 murine fibroblast stably transfected with PathDetect Elk-1, GFRα1 and RET; 6 concentrations, duplicate, two independent runs.
T1 construct: expressed in transfected cells; host or cells: MG87 murine fibroblasts stably transfected with PathDetect Elk-1, GFRα1 and RET
T1 sequence (P56159 25-429 limits assumed): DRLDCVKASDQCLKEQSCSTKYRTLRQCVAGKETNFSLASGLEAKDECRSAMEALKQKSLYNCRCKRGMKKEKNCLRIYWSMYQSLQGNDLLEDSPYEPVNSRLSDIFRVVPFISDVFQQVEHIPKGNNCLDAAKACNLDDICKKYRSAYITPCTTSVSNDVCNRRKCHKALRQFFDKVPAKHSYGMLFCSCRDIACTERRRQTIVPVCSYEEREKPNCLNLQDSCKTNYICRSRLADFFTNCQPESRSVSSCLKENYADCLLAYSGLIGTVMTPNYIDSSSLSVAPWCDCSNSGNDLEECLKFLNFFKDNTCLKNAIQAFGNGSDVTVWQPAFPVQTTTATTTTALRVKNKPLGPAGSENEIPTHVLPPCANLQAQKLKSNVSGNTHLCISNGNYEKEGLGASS
Assay type: cell-based
Experimental: For EC50 determination, a dose-response test was performed using 6 concentrations of each tested compound. Dose-response curves were fitted using the sigmoidal dose-response (variable slope) analysis in GraphPad Prism program (Graph Pad Inc) and EC50 of agonist/activator activity was calculated. Dose-response experiments were all performed in duplicate, two times independently.
Compound `COc1ccc(S(=O)(=O)C2CCCC2)cc1N1CCN(C(=O)c2ccc(F)cc2Cl)CC1C` (racemic) [Cpd 006, (2-chloro-4-fluoro-phenyl)-[rac-(3S)-4-(5-cyclopentylsulfonyl-2-methoxy-phenyl)-3-methyl-piperazin-1-yl]methanone] has an EC50 of 1 to 10 µM.
`CCC(CC)S(=O)(=O)c1ccc(OC)c(N2CCN(C(=O)c3ccc(F)cc3Cl)CC2C)c1` (racemic) [Cpd 007, (2-chloro-4-fluoro-phenyl)-[rac-(3S)-4-[5-(1-ethylpropylsulfonyl)-2-methoxy-phenyl]-3-methyl-piperazin-1-yl]methanone] showed an EC50 of 1 to 10 µM.
`CCCC(C)S(=O)(=O)c1ccc(OC)c(N2CCN(C(=O)c3ccc(F)cc3Cl)CC2C)c1` (racemic) [Cpd 016] was tested, and the EC50 was 1 to 10 µM.
`CCC(C)S(=O)(=O)c1ccc(OC)c(N2C3CCC2CN(C(=O)c2ccc(F)cc2Cl)C3)c1` (racemic) [Cpd 022, (2-chloro-4-fluoro-phenyl)-[(1S,5R)-8-[2-methoxy-5-[(1SR)-1-methylpropyl]sulfonyl-phenyl]-3,8-diazabicyclo[3.2.1]octan-3-yl]methanone] gave an EC50 of 1 to 10 µM.
For `COc1ccc(S(=O)(=O)C(C)CCc2ccccc2)cc1N1C2CCC1CN(C(=O)c1ccc(F)cc1Cl)C2` (racemic) [Cpd 023, (2-chloro-4-fluoro-phenyl)-[(1S,5R)-8-[2-methoxy-5-[(1SR)-1-methyl-3-phenyl-propyl]sulfonyl-phenyl]-3,8-diazabicyclo[3.2.1]octan-3-yl]methanone], the EC50 was 1 to 10 µM.
With `COc1ccc(S(=O)(=O)C(C)CCCc2ccccc2)cc1N1C2CCC1CN(C(=O)c1ccc(F)cc1Cl)C2` (racemic) [Cpd 024, (2-chloro-4-fluoro-phenyl)-[(1S,5R)-8-[2-methoxy-5-[(1SR)-1-methyl-4-phenyl-butyl]sulfonyl-phenyl]-3,8-diazabicyclo[3.2.1]octan-3-yl]methanone] the EC50 was 1 to 10 µM.
`CCC(CCc1ccccc1)S(=O)(=O)c1ccc(OC)c(N2C3CCC2CN(C(=O)c2ccc(F)cc2Cl)C3)c1` (racemic) [Cpd 025, (2-chloro-4-fluoro-phenyl)-[(1S,5R)-8-[5-[(1SR)-1-ethyl-3-phenyl-propyl]sulfonyl-2-methoxy-phenyl]-3,8-diazabicyclo[3.2.1]octan-3-yl]methanone] gave an EC50 of 1 to 10 µM.
Work on `CCC(CCCc1ccccc1)S(=O)(=O)c1ccc(OC)c(N2C3CCC2CN(C(=O)c2ccc(F)cc2Cl)C3)c1` (racemic) [Cpd 026, (2-chloro-4-fluoro-phenyl)-[(1S,5R)-8-[5-[(1SR)-1-ethyl-4-phenyl-butyl]sulfonyl-2-methoxy-phenyl]-3,8-diazabicyclo[3.2.1]octan-3-yl]methanone] yielded an EC50 of 1 to 10 µM.
Compound `CCC(CC)S(=O)(=O)c1ccc(OC)c(N2CCN(C(=O)c3ccc(F)cc3C(F)(F)F)CC2)c1` [Cpd 001, [4-[5-(1-ethylpropylsulfonyl)-2-methoxy-phenyl]piperazin-1-yl]-[4-fluoro-2-(trifluoromethyl)phenyl]methanone] has an EC50 of 10 to 50 µM.
Work on `COc1ccc(S(=O)(=O)C2CCCC2)cc1N1CCN(C(=O)c2ccc(F)cc2C(F)(F)F)CC1` [Cpd 002, [4-(5-cyclopentylsulfonyl-2-methoxy-phenyl)piperazin-1-yl]-[4-fluoro-2-(trifluoromethyl)phenyl]methanone] yielded an EC50 of 10 to 50 µM.
`COc1ccc(S(=O)(=O)C2CCCCC2)cc1N1CCN(C(=O)c2ccc(F)cc2C(F)(F)F)CC1` [Cpd 003, [4-(5-cyclohexylsulfonyl-2-methoxy-phenyl)piperazin-1-yl]-[4-fluoro-2-(trifluoromethyl)phenyl]methanone] gave an EC50 of 10 to 50 µM.
`COc1ccc(S(=O)(=O)C2CCCC2)cc1N1[C@@H]2CC[C@H]1CN(C(=O)c1ccc(F)cc1Cl)C2` [Cpd 004, (2-chloro-4-fluoro-phenyl)-[(1S,5R)-8-(5-cyclopentylsulfonyl-2-methoxy-phenyl)-3,8-diazabicyclo[3.2.1]octan-3-yl]methanone] gave an EC50 of 1 to 10 µM.
For `CCC(CC)S(=O)(=O)c1ccc(OC)c(N2[C@@H]3CC[C@H]2CN(C(=O)c2ccc(F)cc2Cl)C3)c1` [Cpd 005, (2-chloro-4-fluoro-phenyl)-[(1S,5R)-8-[5-(1-ethylpropylsulfonyl)-2-methoxy-phenyl]-3,8-diazabicyclo[3.2.1]octan-3-yl]methanone], the EC50 was 1 to 10 µM.
In the case of `COc1ccc(S(=O)(=O)C(C)C)cc1N1CCN(C(=O)c2ccc(F)cc2Cl)CC1` [Cpd 008, (2-chloro-4-fluoro-phenyl)-[4-(5-isopropylsulfonyl-2-methoxy-phenyl)piperazin-1-yl]methanone], the EC50 is reported as 10 to 50 µM.
For `COc1ccc(S(=O)(=O)CC2CC2)cc1N1CCN(C(=O)c2ccc(F)cc2Cl)CC1` [Cpd 009, (2-chloro-4-fluoro-phenyl)-[4-[5-(cyclopropylmethylsulfonyl)-2-methoxy-phenyl]piperazin-1-yl]methanone], the EC50 was 1 to 10 µM.
In the case of `COc1ccc(S(=O)(=O)C2CCC2)cc1N1[C@@H]2CC[C@H]1CN(C(=O)c1ccc(F)cc1Cl)C2` [Cpd 010, (2-chloro-4-fluoro-phenyl)-[(1S,5R)-8-(5-cyclobutylsulfonyl-2-methoxy-phenyl)-3,8-diazabicyclo[3.2.1]octan-3-yl]methanone], the EC50 is reported as 1 to 10 µM.
Work on `COc1ccc(S(=O)(=O)C2COC2)cc1N1CCN(C(=O)c2ccc(F)cc2Cl)CC1` [Cpd 011, (2-chloro-4-fluoro-phenyl)-[4-[2-methoxy-5-(oxetan-3-ylsulfonyl)phenyl]piperazin-1-yl]methanone] yielded an EC50 of 10 to 50 µM.
For `COc1ccc(S(=O)(=O)CC2CCC2)cc1N1CCN(C(=O)c2ccc(F)cc2Cl)CC1` [Cpd 012, (2-chloro-4-fluoro-phenyl)-[4-[5-(cyclobutylmethylsulfonyl)-2-methoxy-phenyl]piperazin-1-yl]methanone], the EC50 was 10 to 50 µM.
For `COc1ccc(S(=O)(=O)CC2CCCC2)cc1N1CCN(C(=O)c2ccc(F)cc2Cl)CC1` [Cpd 013, (2-chloro-4-fluoro-phenyl)-[4-[5-(cyclopentylmethylsulfonyl)-2-methoxy-phenyl]piperazin-1-yl]methanone], the EC50 was 1 to 10 µM.
`COc1ccc(S(=O)(=O)Cc2ccccc2)cc1N1[C@@H]2CC[C@H]1CN(C(=O)c1ccc(F)cc1Cl)C2` [Cpd 014, [(1S,5R)-8-(5-benzylsulfonyl-2-methoxy-phenyl)-3,8-diazabicyclo[3.2.1]octan-3-yl]-(2-chloro-4-fluoro-phenyl)methanone] gave an EC50 of 10 to 50 µM.
With `COc1ccc(S(=O)(=O)CC(C)(C)C)cc1N1[C@@H]2CC[C@H]1CN(C(=O)c1ccc(F)cc1Cl)C2` [Cpd 015, (2-chloro-4-fluoro-phenyl)-[(1S,5R)-8-[5-(2,2-dimethylpropylsulfonyl)-2-methoxy-phenyl]-3,8-diazabicyclo[3.2.1]octan-3-yl]methanone] the EC50 was 1 to 10 µM.
With `COc1ccc(S(=O)(=O)CC(C)C)cc1N1CCN(C(=O)c2ccc(F)cc2C(F)(F)F)CC1` [Cpd 018, [4-fluoro-2-(trifluoromethyl)phenyl]-[4-(5-isobutylsulfonyl-2-methoxy-phenyl)piperazin-1-yl]methanone] the EC50 was 10 to 50 µM.
`COc1ccc(S(=O)(=O)CCC2CCCC2)cc1N1[C@@H]2CC[C@H]1CN(C(=O)c1ccc(F)cc1Cl)C2` [Cpd 019, (2-chloro-4-fluoro-phenyl)-[(1S,5R)-8-[5-(2-cyclopentylethylsulfonyl)-2-methoxy-phenyl]-3,8-diazabicyclo[3.2.1]octan-3-yl]methanone] was tested, and the EC50 was 1 to 10 µM.
Compound `CCCCS(=O)(=O)c1ccc(OC)c(N2[C@@H]3CC[C@H]2CN(C(=O)c2ccc(F)cc2Cl)C3)c1` [Cpd 020, [(1S,5R)-8-(5-butylsulfonyl-2-methoxy-phenyl)-3,8-diazabicyclo[3.2.1]octan-3-yl]-(2-chloro-4-fluoro-phenyl)methanone] has an EC50 of 1 to 10 µM.
`CCC(CC)CS(=O)(=O)c1ccc(OC)c(N2[C@@H]3CC[C@H]2CN(C(=O)c2ccc(F)cc2Cl)C3)c1` [Cpd 021, (2-chloro-4-fluoro-phenyl)-[(1S,5R)-8-[5-(2-ethylbutylsulfonyl)-2-methoxy-phenyl]-3,8-diazabicyclo[3.2.1]octan-3-yl]methanone] gave an EC50 of 1 to 10 µM.
`COc1ccc(S(=O)(=O)C2CCN(c3ccccc3)CC2)cc1N1[C@@H]2CC[C@H]1CN(C(=O)c1ccc(F)cc1Cl)C2` [Cpd 027, (2-chloro-4-fluoro-phenyl)-[(1S,5R)-8-[2-methoxy-5-[(1-phenyl-4-piperidyl)sulfonyl]phenyl]-3,8-diazabicyclo[3.2.1]octan-3-yl]methanone] was tested, and the EC50 was < 1 µM.
For `COc1ccc(S(=O)(=O)C2CCN(CCc3ccccc3)CC2)cc1N1[C@@H]2CC[C@H]1CN(C(=O)c1ccc(F)cc1Cl)C2` [Cpd 028, (2-chloro-4-fluoro-phenyl)-[(1S,5R)-8-[2-methoxy-5-[[1-(2-phenylethyl)-4-piperidyl]sulfonyl]phenyl]-3,8-diazabicyclo[3.2.1]octan-3-yl]methanone], the EC50 was 1 to 10 µM.
`COc1ccc(S(=O)(=O)C2CCN(CCc3ccc(F)cc3)CC2)cc1N1[C@@H]2CC[C@H]1CN(C(=O)c1ccc(F)cc1Cl)C2` [Cpd 029, (2-chloro-4-fluoro-phenyl)-[(1S,5R)-8-[5-[[1-[2-(4-fluorophenyl)ethyl]-4-piperidyl]sulfonyl]-2-methoxy-phenyl]-3,8-diazabicyclo[3.2.1]octan-3-yl]methanone] showed an EC50 of 1 to 10 µM.
